Reference: patent US20030171329A1, “Stable compositions comprising tezacitabine” (priority 2002, published 2003)

Experiments:
[1] = Degradation products in HPLC chromatograms of degraded samples; assay type: physicochemical
Source text: The major degradation product of tezacitabine seen in HPLC chromatograms of degraded samples is cytosine. Based on this, but without limitation to any specific theory, the mechanism of degradation is believed to involve hydrolysis of the glycosidic bond between the […] ring and the sugar ring. This hydrolysis reaction is believed to occur rapidly at low pH but much less rapidly at high pH. The liberated sugar moiety is believed subsequently to undergo rapid degradation to a spectrum of products, one or more of which are highly acidic as well as being colored. The cytosine may also further degrade to acid-producing and/or color-producing species. The degradation, therefore, has a propensity to become autocatalytic, as the liberated acid species would tend to lower the pH, thus accelerating the degradation of previously undegraded tezacitabine molecules.
Degradation of tezacitabine can readily be monitored by the use of high pressure liquid chromatography (HPLC) methods which separate the drug from its degradation products and quantitate the amount of intact drug remaining in the solution. Typically such studies are performed by filling aliquots of various tezacitabine solutions into appropriate containers (e.g., stoppered glass vials or sealed ampoules) and storing these samples for various periods of time under various storage conditions. […]

[2] = Stability of tezacitabine in unbuffered aqueous solution; assay type: physicochemical

## Nc1ccn([C@@H]2O[C@H](CO)[C@@H](O)/C2=C\F)c(=O)n1 [FMdC, (E)-2′-deoxy-2′-(fluoromethylene)cytidine]
[1]
  major degradation product: cytosine
[2]; 35° C., start
  pH before storage: about 7.2
[2]; 35° C., within 4 days
  loss of drug (HPLC): greater than 90%
  pH after storage: about 4.3
[2]; room temperature, within five days
  colour change of solution, indicative of degradation: changes from colorless to yellow to light brown
